Measured values published in patent US20200079766A1, “MONOCYCLIC OGA INHIBITOR COMPOUNDS” (Janssen Pharmaceutica NV, priority 2016, published 2020).
Read-outs that look alike come from different tables or passages of the source.

Target: T1, recombinant human Meningioma Expressed Antigen 5 (MGEA5), also referred to as O-GlcNAcase (OGA) (Homo sapiens, UniProt O60502)
T1 construct: Full length OGA enzyme was purchased at OriGene (cat # TP322411); purchased OriGene TP322411
T1 sequence (O60502 1-916): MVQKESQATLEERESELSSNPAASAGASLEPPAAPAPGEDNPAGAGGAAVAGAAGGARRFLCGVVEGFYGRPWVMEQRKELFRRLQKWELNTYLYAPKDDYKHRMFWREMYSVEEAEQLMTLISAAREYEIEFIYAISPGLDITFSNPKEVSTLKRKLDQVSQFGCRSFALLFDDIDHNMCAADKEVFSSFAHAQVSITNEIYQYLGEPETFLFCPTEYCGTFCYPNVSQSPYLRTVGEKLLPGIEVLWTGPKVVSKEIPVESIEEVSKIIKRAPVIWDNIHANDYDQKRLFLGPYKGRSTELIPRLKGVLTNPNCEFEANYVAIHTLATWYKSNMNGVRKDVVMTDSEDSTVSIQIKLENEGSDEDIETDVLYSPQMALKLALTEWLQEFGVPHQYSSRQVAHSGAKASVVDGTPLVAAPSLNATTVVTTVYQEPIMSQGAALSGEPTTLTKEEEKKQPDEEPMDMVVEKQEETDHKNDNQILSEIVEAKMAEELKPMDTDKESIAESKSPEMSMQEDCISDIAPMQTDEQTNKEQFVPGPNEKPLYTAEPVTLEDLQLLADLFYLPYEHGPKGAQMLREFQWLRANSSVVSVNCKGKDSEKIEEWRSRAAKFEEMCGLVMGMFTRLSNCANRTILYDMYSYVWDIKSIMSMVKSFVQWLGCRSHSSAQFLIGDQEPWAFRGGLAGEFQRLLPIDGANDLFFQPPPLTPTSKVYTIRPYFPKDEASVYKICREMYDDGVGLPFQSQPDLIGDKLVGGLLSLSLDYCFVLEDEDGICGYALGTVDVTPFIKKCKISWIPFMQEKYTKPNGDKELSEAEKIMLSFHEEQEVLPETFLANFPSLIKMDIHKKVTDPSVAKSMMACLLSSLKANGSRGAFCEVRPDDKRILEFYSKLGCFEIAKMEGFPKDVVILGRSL
Assay: OGA biochemical assay: inhibition of FM-GlcNAc hydrolysis, fluorescence; protocol A (10 nM OGA, 1 h) or protocol B (2 nM OGA, 6 h)
Details: for IC50: read-out: Enzymatic hOGA, pIC50 (converted)
Excerpt: The assay is based on the inhibition of the hydrolysis of fluorescein mono-3-D-N-Acetyl-Glucosamine (FM-GlcNAc) (Mariappa et al. 2015, Biochem J 470:255) by the recombinant human Meningioma Expressed Antigen 5 (MGEA5), also referred to as O-GlcNAcase (OGA). The hydrolysis FM-GlcNAc (Marker Gene technologies, cat # M1485) results in the formation of ß-D-N-glucosamineacetate and fluorescein. The fluorescence of the latter can be measured at excitation wavelength 485 nm and emission wavelength 538 nm. An increase in enzyme activity results in an increase in fluorescence signal. Full length OGA enzyme was purchased at OriGene (cat # TP322411). The enzyme was stored in 25 mM Tris.HCl, pH 7.3, 100 mM glycine, 10% glycerol at −20° C. Thiamet G and GlcNAcStatin were tested as reference compounds (Yuzwa et al. 2008 Nature Chemical Biology 4:483; Yuzwa et al. 2012 Nature Chemical Biology 8:393). The assay was performed in 200 mM Citrate/phosphate buffer supplemented with 0.005% Tween-20. 35.6 g Na2HPO42H2O (Sigma, # C0759) were dissolved in 1 L water to obtain a 200 mM solution. 19.2 g citric acid (Merck, #1.06580) was dissolved in 1 L water to obtain a 100 mM solution. pH of the sodiumphosphate solution was adjusted with the citric acid solution to 7.2. The buffer to stop the reaction consists of a 500 mM Carbonate buffer, pH 11.0. 734 mg
FM-GlcNAc were dissolved in 5.48 mL DMSO to obtain a 250 mM solution and was stored at −20° C. OGA was used at a 10 nM (protocol A) or 2 nM (protocol B) concentration and FM-GlcNAc at a 100 uM final concentration. Dilutions were prepared in assay buffer.
50 nl of a compound dissolved in DMSO was dispensed on Black Proxiplate™ 384 Plus Assay plates (Perkin Elmer, #6008269) and 3 μl fl-OGA enzyme mix added subsequently. Plates were pre-incubated for 60 min at room temperature and then 2 μl FM-GlcNAc substrate mix added. […] Plates were briefly centrifuged for 1 min at 1000 rpm and incubate at room temperature for 1 h (10 nM OGA, protocol A) or 6 h (2 nM OGA, protocol B). To stop the reaction 5 μl STOP buffer were added and plates centrifuge again 1 min at 1000 rpm. Fluorescence was quantified in the Thermo Scientific Fluoroskan Ascent or the PerkinElmer EnVision with excitation wavelength 485 nm and emission wavelength 538 nm.
For analysis a best-fit curve is fitted by a minimum sum of squares method. From this an IC50 value and Hill coefficient was obtained. High control (no inhibitor) and low control (saturating concentrations of standard inhibitor) were used to define the minimum and maximum values.

[1] = Enzymatic protocol B (2 nM OGA, 6 h)
[2] = Enzymatic protocol A (10 nM OGA, 1 h)

Row | Compound | Emax [1] [%] | IC50 [1] [nM] | other results
1 | Cc1cc(C[C@H]2CCN(C(C)c3nc4ccccc4[nH]3)C2)cc(C)n1 (mixture of isomers) [compound 78] | 8.78 | > 10000 | –
2 | Cc1cc(C[C@H]2CCN(C(C)c3cc4ccccc4n3C)C2)cc(C)n1 (mixture of isomers) [compound 94] | 30.7 | > 10000 | –
3 | CC(=O)Nc1ncc(CN2CCCC(COc3cc(C)nc(C)c3)C2)[nH]1 (racemic) [compound 132] | 91.9 | 1230 | –
4 | Cc1cc(CC2CCCN(C(C)c3nc4ccccc4[nH]3)C2)cc(C)n1 (racemic) [compound 149] | 67.6 | 5370 | –
5 | Cc1cc(OCC2(F)CCCN(Cc3ccc4nccnc4c3)C2)cc(C)n1 (racemic) [compound 157] | 69 | 2400 | –
6 | CC(=O)Nc1ncc(CN2C[C@@H](F)C[C@@H](COc3cc(C)nc(C)n3)C2)s1 (racemic) [compound 164] | 94 | 617 | –
7 | CC(=O)Nc1ncc(CN2C[C@@H](Cc3cc(C)nc(C)c3)CC[C@@H]2C)s1 (racemic) [compound 165] | 100 | 2.24 | –
8 | CC(=O)Nc1ncc(CN2C[C@@H](Cc3cc(C)nc(C)c3)CC[C@H]2C)s1 (racemic) [compound 166] | 99 | 2.63 | –
9 | CC(=O)Nc1ncc(CN2CCC[C@@H](Cc3cc(C)nc(C)c3)[C@H]2C)s1 (racemic) [compound 169] | 100 | 87.1 | –
10 | CC(=O)Nc1ncc(CN2CCCC(c3cc(C)nc(C)c3)C2)s1 (single isomer, unassigned) [compound 131] | – | 977 | Enzymatic Emax (%) [1]: 85.38%
11 | CC(=O)Nc1ncc(CN2CCC[C@@H](Cc3cc(C)nc(C)c3)[C@H]2C)s1 (single isomer, unassigned) [compound 170] | 100 | 81.3 | –
12 | CC(=O)Nc1ncc(CN2CCC[C@H](Cc3cc(C)nc(C)c3)[C@@H]2C)s1 (single isomer, unassigned) [compound 171] | 52 | 9550 | –
13 | CC(=O)Nc1ncc(S(=O)(=O)N2CCCC(Oc3cc(C)nc(C)c3)C2)s1 (centres unmarked) [compound 1] | – | – | Emax [2]: 96.3%; IC50 [2]: 661 nM
14 | CC(=O)Nc1ncc(S(=O)(=O)N2CCCC(Oc3ccnc(C)c3)C2)s1 (centres unmarked) [compound 2] | – | – | Emax [2]: 89%; IC50 [2]: 1050 nM
15 | CC(=O)Nc1ncc(S(=O)(=O)N2CCC(c3ccnc(C)c3)C2)s1 (centres unmarked) [compound 3] | 43 | > 10000 | Emax [2]: 15%; IC50 [2]: > 10000 nM
16 | CC(=O)Nc1ncc(S(=O)(=O)N2CCC(c3ccc(C)nc3)C2)s1 (centres unmarked) [compound 4] | 50.5 | – | –
17 | CC(=O)Nc1ncc(CN2CCCC(c3ccccc3)C2)s1 (centres unmarked) [compound 5, reference compound] | – | – | Emax [2]: 102%; IC50 [2]: 141 nM
18 | CC(=O)Nc1ncc(CN2CCC[C@@H](Nc3cc(C)nc(C)c3)C2)s1 [compound 8] | 101 | 50.1 | –
19 | Cc1cc(N[C@@H]2CCCN(Cc3ccc4nccnc4c3)C2)cc(C)n1 [compound 10] | 85.6 | 1660 | –
20 | Cc1cc(N[C@H]2CCCN(Cc3ccc4nccnc4c3)C2)cc(C)n1 [compound 12] | 92.9 | 676 | –
21 | CC(=O)Nc1ncc(CN2CCCC(OCc3cc(C)nc(C)c3)C2)s1 (centres unmarked) [compound 21] | 101 | 63.1 | –
22 | CC(=O)Nc1ncc(CN2CC[C@@H](Nc3cc(C)nc(C)c3)C2)s1 [compound 22] | 99.8 | 214 | –

Row | Compound | Emax [1] [%] | IC50 [1] [nM] | other results
23 | CC(=O)Nc1ncc(CN2CC[C@H](Nc3cc(C)nc(C)c3)C2)s1 [compound 23] | 101 | 158 | –
24 | CC(=O)Nc1ncc(CN2CCCC(N(C)c3cc(C)nc(C)c3)C2)s1 (centres unmarked) [compound 32] | 101 | 13.5 | –
25 | CC(=O)Nc1ncc(CN2CC[C@@H](Cc3ccc(C(F)(F)F)c(C)n3)C2)s1 [compound 36] | 99 | 56.2 | –
26 | CC(=O)Nc1ncc(CN2CCC(Cc3cccc(C(C)C)n3)C2)s1 (centres unmarked) [compound 40] | 99.7 | 7.76 | –
27 | COc1cc(C[C@H]2CCN(Cc3cnc(NC(C)=O)s3)C2)cc(C)n1 [compound 42] | 101 | 8.32 | –
28 | CC(=O)Nc1ncc(CN2CC[C@H](Cc3cncnc3)C2)s1 [compound 55] | 99.8 | 55 | –
29 | COc1ccc(C)nc1C[C@H]1CCN(Cc2cnc(NC(C)=O)s2)C1 [compound 57] | 100 | 45.7 | –
30 | CC(=O)Nc1ncc(CN2CCC(Cc3ccc(C(F)(F)F)nn3)C2)s1 (centres unmarked) [compound 65] | – | – | Enzymatic Emax (%) [1]: 100%; Enzymatic hOGA; pIC50 [1]: 7.28
31 | CC(=O)Nc1ncc(CN2CCC(Cc3ccc(C(F)(F)F)cn3)C2)s1 (centres unmarked) [compound 68] | – | – | Enzymatic Emax (%) [1]: 101.5%; Enzymatic hOGA; pIC50 [1]: 7.10
32 | Cc1cc(C[C@H]2CCN(Cc3ccc4sc(C)nc4c3)C2)cc(C)n1 [compound 82] | – | – | Enzymatic Emax (%) [1]: 87.4%; Enzymatic hOGA; pIC50 [1]: 5.91
33 | Cc1cc(C[C@H]2CCN(Cc3ccc4scnc4c3)C2)cc(C)n1 [compound 83] | – | – | Enzymatic Emax (%) [1]: 87.8%; Enzymatic hOGA; pIC50 [1]: 5.79
34 | Cc1cc(C[C@H]2CCN(Cc3ccc4c(c3)OCO4)C2)cc(C)n1 [compound 99] | – | – | Enzymatic Emax (%) [1]: −6.5%; Enzymatic hOGA; pIC50 [1]: <5
35 | Cc1cc(C[C@H]2CCN(Cc3ccc4c(c3)OCCO4)C2)cc(C)n1 [compound 101] | – | – | Enzymatic Emax (%) [1]: 81.7%; Enzymatic hOGA; pIC50 [1]: 5.8
36 | Cc1cc([C@@H]2CCCN([C@@H](C)c3ccc4sc(C)nc4c3)C2)cc(C)n1 [compound 116] | 79.2 | 3470 | –
37 | CC(=O)Nc1ncc(CN2CCCC(COc3cc(C)nc(C)c3)C2)[nH]1 (centres unmarked) [compound 120] | 91.9 | 1230 | –
38 | CC(=O)Nc1ncc(CN2CCC[C@H](Cc3cnc(C)c(C)n3)C2)s1 [compound 124] | 100 | 1.74 | –
39 | CC(=O)Nc1ncc(CN2CCC[C@H](Cc3ccc(C)nc3C#N)C2)s1 [compound 125] | 100 | 1.7 | –
40 | Cc1cc(C[C@H]2CCCN(Cc3ccc4c(c3)OCO4)C2)cc(C)n1 [compound 146] | 93.5 | 1000 | –
41 | Cc1cc(C[C@H]2CCCN(Cc3cc4ccccc4n3C)C2)cc(C)n1 [compound 150] | 20.8 | > 10000 | –
42 | Cc1cc(C[C@H]2CCCN(Cc3nc4ccccc4[nH]3)C2)cc(C)n1 [compound 151] | 2.86 | > 10000 | –
43 | Cc1cc(C[C@H]2CCCN(Cc3nc4ccccc4n3C)C2)cc(C)n1 [compound 153] | 23.9 | > 10000 | –
44 | CC(=O)Nc1ncc(CN2CC(COc3cc(C)nc(C)n3)CC(F)(F)C2)s1 (centres unmarked) [compound 161] | 48 | > 10000 | –
